Measurements reported in PMC4774911, “Biochemical Screening of Five Protein Kinases from Plasmodium falciparum against 14,000 Cell-Active Compounds” (PLoS ONE, 2016).
Values joined by “and” are separate entries in the source; they are usually repeats but may differ in a detail not shown here. Identical values can stand only once.

Tests used:
Experiment in all cases: biochemical
Set-up in all cases: endogenous in cells; host or cells: K562 cell extract; species or system K562 (extract); replicate k of n = 2 (each experiment ID is one independent experiment; two experiment IDs per compound)
Conditions in all cases: read-out: KDapp
DYRK1A = DYRK1A (Homo sapiens, UniProt Q13627)
NEK2 = target: T1, NEK2 (Homo sapiens, UniProt P51955)
T1 sequence (P51955 1-445): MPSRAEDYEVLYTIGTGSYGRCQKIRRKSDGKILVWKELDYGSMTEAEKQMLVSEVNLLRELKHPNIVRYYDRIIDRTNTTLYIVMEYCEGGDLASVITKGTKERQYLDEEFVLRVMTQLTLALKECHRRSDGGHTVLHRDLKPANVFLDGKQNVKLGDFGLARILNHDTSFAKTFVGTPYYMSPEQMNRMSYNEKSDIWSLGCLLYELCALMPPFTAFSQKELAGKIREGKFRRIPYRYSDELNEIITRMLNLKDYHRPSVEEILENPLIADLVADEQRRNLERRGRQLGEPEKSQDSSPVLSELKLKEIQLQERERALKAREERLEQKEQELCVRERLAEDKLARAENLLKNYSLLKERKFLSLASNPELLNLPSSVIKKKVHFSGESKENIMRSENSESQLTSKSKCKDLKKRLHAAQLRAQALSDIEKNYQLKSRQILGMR

PRKAA1 = PRKAA1 (Homo sapiens, UniProt Q13131)
PRKAA1, sequence (Q13131 whole entry): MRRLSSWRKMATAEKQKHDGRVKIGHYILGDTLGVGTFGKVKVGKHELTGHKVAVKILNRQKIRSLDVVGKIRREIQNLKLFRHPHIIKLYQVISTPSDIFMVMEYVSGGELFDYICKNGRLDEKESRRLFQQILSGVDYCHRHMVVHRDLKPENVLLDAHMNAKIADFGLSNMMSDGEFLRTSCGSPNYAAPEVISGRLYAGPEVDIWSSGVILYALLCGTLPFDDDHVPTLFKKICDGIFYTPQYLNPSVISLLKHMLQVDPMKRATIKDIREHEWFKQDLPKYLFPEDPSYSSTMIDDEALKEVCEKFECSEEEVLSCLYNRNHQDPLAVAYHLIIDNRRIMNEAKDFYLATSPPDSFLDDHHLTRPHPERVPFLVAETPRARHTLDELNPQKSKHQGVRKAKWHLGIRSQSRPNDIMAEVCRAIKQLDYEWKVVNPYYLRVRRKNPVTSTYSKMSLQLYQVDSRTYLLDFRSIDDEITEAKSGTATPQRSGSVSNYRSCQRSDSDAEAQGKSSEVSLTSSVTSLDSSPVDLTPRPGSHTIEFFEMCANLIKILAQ

CAMKK2 = CAMKK2 (Homo sapiens, UniProt Q96RR4)
CAMKK2, sequence (Q96RR4 whole entry): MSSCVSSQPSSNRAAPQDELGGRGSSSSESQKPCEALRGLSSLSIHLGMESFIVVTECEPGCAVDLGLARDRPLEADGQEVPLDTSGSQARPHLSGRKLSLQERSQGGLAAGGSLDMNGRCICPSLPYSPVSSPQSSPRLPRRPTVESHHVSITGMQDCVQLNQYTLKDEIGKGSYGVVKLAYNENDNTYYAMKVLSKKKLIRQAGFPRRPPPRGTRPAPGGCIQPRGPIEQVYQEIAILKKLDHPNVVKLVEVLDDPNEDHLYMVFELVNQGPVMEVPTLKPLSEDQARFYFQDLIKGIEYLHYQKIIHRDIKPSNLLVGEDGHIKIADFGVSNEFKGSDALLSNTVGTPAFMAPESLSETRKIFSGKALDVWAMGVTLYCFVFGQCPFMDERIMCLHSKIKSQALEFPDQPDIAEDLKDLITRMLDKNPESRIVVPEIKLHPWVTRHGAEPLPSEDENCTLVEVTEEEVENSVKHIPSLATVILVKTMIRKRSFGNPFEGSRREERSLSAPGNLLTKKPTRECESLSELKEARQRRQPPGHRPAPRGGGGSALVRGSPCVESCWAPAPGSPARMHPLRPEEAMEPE

MAP3K4 = MAP3K4 (Homo sapiens, UniProt Q9Y6R4)
MAP3K4, sequence (Q9Y6R4 whole entry): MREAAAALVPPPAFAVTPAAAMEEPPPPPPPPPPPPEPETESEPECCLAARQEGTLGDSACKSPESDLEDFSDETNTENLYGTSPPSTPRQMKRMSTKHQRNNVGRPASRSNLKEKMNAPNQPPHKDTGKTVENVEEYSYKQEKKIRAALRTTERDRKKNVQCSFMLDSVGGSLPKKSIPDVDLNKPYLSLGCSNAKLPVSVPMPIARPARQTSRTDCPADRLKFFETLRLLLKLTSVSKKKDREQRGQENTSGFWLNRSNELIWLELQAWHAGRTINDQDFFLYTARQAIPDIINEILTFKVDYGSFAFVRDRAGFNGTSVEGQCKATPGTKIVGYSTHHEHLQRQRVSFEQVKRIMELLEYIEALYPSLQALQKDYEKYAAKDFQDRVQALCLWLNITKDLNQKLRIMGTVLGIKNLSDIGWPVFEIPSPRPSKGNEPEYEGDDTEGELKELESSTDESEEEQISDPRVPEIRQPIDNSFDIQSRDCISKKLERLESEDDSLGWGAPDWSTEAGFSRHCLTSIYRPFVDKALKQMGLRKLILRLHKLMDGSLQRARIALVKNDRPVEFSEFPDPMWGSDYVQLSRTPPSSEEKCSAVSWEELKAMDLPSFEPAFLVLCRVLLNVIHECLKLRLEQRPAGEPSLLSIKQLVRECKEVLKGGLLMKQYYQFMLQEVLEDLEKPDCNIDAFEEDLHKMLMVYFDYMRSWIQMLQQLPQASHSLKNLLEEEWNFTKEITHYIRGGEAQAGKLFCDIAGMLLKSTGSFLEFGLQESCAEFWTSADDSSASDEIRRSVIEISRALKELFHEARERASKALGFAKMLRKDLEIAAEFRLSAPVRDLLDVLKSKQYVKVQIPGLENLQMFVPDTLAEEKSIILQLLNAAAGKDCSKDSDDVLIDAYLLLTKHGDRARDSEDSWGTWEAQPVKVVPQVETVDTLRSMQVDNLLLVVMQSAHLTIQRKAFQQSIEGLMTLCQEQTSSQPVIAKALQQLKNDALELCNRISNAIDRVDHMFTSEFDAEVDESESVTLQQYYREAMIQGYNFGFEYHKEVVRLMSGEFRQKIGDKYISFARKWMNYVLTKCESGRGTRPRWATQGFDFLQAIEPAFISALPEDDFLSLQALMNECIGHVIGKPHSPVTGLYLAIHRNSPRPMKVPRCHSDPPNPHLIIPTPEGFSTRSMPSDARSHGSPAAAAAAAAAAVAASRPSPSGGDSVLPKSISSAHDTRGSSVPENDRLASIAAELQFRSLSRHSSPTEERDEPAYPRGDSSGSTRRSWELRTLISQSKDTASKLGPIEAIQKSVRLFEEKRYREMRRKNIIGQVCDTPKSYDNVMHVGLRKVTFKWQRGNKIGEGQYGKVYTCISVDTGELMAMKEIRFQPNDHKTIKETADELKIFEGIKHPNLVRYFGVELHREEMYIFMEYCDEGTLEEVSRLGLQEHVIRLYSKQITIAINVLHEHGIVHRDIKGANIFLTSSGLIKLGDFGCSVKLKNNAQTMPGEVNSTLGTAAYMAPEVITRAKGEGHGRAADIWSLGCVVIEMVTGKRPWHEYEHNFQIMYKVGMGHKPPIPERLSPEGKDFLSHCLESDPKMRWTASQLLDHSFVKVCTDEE

MAP2K5 = target: T2, MAP2K5 (Homo sapiens, UniProt Q13163)
T2 sequence (Q13163 1-448): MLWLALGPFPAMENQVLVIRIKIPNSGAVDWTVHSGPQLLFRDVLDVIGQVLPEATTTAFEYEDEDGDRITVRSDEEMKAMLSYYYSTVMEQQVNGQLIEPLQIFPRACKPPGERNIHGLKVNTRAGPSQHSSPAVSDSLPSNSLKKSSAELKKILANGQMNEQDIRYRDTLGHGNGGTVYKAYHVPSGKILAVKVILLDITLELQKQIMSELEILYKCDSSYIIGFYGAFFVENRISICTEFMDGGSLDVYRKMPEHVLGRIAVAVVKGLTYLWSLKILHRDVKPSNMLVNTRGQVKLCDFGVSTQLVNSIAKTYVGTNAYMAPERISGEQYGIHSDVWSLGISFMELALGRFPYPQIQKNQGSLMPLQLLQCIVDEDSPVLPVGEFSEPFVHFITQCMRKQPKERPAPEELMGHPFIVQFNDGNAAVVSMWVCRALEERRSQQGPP

CSNK1E = CSNK1E (Homo sapiens, UniProt P49674)
CSNK1E, sequence (P49674 whole entry): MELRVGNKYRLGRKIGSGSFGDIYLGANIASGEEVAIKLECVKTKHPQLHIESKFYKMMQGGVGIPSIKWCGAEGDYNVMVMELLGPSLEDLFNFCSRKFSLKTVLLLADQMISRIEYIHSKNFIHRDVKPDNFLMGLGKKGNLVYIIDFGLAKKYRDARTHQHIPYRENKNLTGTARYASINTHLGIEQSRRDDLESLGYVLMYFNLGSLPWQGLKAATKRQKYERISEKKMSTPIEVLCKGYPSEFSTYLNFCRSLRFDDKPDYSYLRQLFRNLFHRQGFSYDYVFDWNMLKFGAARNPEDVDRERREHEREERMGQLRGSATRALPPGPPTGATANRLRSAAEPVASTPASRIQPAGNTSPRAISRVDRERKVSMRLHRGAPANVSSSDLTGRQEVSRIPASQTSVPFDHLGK

MINK1 = MINK1 (Homo sapiens, UniProt Q8N4C8)
MAPK7 = MAPK7 (Homo sapiens, UniProt Q13164)
MELK = MELK (Homo sapiens, UniProt Q14680)
MELK, sequence (Q14680 whole entry): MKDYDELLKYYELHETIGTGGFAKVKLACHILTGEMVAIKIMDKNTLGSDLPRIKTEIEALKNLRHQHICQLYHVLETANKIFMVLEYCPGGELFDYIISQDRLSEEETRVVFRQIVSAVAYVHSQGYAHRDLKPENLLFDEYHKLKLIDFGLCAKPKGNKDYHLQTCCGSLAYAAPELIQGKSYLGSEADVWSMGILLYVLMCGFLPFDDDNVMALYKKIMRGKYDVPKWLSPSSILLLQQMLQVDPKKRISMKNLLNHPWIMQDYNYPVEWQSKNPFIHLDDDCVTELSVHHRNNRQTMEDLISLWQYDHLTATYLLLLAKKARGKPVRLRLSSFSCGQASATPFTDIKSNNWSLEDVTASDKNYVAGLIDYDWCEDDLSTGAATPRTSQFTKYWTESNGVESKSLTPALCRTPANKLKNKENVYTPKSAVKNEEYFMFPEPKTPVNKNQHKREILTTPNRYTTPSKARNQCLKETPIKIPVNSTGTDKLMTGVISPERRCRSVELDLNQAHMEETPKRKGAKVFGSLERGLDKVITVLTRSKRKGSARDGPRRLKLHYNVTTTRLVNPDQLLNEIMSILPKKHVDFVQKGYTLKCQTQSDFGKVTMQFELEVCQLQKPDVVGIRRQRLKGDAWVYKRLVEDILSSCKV

FYN = FYN (Homo sapiens, UniProt P06241)
FYN, sequence (P06241 whole entry): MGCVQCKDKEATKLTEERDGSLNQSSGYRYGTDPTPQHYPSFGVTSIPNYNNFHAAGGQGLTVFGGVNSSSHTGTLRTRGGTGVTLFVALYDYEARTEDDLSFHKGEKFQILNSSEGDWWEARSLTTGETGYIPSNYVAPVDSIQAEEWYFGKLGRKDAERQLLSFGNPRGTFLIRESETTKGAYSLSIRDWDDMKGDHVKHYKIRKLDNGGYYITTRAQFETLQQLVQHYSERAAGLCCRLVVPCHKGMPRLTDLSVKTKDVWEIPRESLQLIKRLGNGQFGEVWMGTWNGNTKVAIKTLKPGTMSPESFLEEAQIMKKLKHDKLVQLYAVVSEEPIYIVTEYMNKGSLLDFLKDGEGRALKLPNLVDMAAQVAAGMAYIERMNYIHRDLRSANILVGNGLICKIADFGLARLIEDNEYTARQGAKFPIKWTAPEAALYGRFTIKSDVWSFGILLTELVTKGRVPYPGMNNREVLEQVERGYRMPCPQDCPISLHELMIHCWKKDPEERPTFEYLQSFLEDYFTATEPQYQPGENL

PRKCD = PRKCD (Homo sapiens, UniProt Q05655)
RIPK2 = RIPK2 (Homo sapiens, UniProt O43353)
RIPK2, sequence (O43353 whole entry): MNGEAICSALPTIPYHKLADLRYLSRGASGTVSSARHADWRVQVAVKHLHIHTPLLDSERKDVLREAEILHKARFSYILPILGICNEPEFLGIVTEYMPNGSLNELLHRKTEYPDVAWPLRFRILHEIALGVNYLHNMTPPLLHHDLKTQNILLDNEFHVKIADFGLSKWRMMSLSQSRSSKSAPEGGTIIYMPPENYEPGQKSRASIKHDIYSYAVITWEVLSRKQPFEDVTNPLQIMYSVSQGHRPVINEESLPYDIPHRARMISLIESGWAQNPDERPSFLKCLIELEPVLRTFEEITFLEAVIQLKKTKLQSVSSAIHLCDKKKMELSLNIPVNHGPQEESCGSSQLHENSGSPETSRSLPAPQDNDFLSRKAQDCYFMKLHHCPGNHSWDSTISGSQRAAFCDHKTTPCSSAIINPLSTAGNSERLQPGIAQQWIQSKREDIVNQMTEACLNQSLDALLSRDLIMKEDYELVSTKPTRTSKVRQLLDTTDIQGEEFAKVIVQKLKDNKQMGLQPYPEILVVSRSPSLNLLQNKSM

| SMILES | Kd (DYRK1A) | Kd (NEK2) | Kd (PRKAA1) | Kd (CAMKK2) | Kd (MAP3K4) | Kd (MAP2K5) | Kd (CSNK1E) | Kd (MINK1) [nM] | Kd (MAPK7) | Kd (MELK) | Kd (FYN) | Kd (PRKCD) [nM] | Kd (RIPK2) |
| --- | --- | --- | --- | --- | --- | --- | --- | --- | --- | --- | --- | --- | --- |
| CN(C)CC(O)COc1ccc(Nc2ncc([N+](=O)[O-])c(Nc3ccccc3O)n2)cc1.O=C(O)C(F)(F)F (centres unmarked) [TCMDC-141399] | 2860 nM | 3060 nM and 1980 nM | 2630 nM and 2850 nM | 1940 nM and 2040 nM | 426 nM | – | – | – | – | – | – | – | – |
| Cl.NCC1(c2nc(-c3ccc(Cl)c(O)c3)c(-c3ccncc3)[nH]2)CCCCC1 [TCMDC-141154] | – | – | – | – | – | 479 nM | 226 nM | 837 | 549 nM and 949 nM | 1680 nM and 1610 nM | 67.6 nM and 60.5 nM | 806 | 14.5 nM and 17.5 nM |
| CN1CCN(c2ccc(Nc3ncc(C#N)c(Nc4ccccc4C(N)=O)n3)cc2)CC1.Cl [TCMDC-134116] | 286 nM and 263 nM | 269 nM and 118 nM | 14.1 nM and 18.2 nM | 131 nM and 139 nM | 19.8 nM and 25.8 nM | 218 nM and 283 nM | 1100 nM and 2810 nM | 173 | 140 nM and 190 nM | 129 nM and 125 nM | 107 nM and 85.4 nM | 685 | 273 nM |
